Laboratory results reported in publication PMC7224190, “Pharmacological inhibition of PRMT7 links arginine monomethylation to the cellular stress response” (Nature Communications, 2020).
pIC50: −log10 of the molar value.

How the values were obtained:
Assay in all cases: biochemical
Parameters in all cases: radiometric methyltransferase assay with tritiated SAM, IC50
PRMT5-MEP50 = PRMT5-MEP50 (Homo sapiens, UniProt O14744)
Experimental: (§1) The methyltransferase selectivity was assessed at two compound concentrations of 1 and 10 μM by radiometric assays using tritiated-SAM. For methyltransferases: MLL1, MLL3, EZH1 (PRC2), and EZH2 (PRC2), G9a, GLP, SUV39H1, SUV39H2, SUV420H1, SUV420H2, SETD2, SETD8, SETDB1, SETD7, PRMT1, PRMT3, PRMT4, PRMT5/ MEP50 complex, PRMT6, PRMT7, PRMT8, PRMT9, PRDM9, SMYD2, SMYD3, DNMT1, and BCDIN3D the incorporation of a tritium-labeled methyl group into biotinylated substrate was monitored using scintillation proximity assay (SPA). Briefly, a 10 μL reaction containing ^3H-SAM and substrate at concentrations close to the apparent Km values for each enzyme (balanced conditions) was prepared. The reactions were quenched with 10 μL of 7.5 M guanidine hydrochloride; 180 μL of 20 mM Tris buffer (pH 8.0) were added, and the mixture was transferred to a 96-well FlashPlate and incubated for 1 h. The counts per minute (CPM) was measured on a TopCount plate reader. The CPM in the absence of compound or enzyme was defined as 100% activity and background (0%), respectively, for each dataset[74]–[76]. Selectivity of SGC8158 against 342 kinases was evaluated in a kinase panel TR-FRET assay at 1 and 0.1 μM compound in duplicates as described before. Briefly, tagged kinases were incubated with compound and staurosporine-based fluorescent probe where the binding was detected using Tb conjugated anti-tag antibody energy transfer to the probe. Excitation wavelength was 337 nm and fluorescent emission signal was measured for Tb (486 nm) and fluorescent probe (BODIPY, 515 nm). Specific and non-specific binding was determined in the absence and presence of unlabeled staurosporine. Assays using biotinylated H2B (23–37) as a substrate were performed in buffer (20 mM Tris–HCl, pH 8.5, 0.01% Tween-20, and 5 mM DTT) containing 5 nM PRMT7, 1.1 µM ^3H-SAM (Cat.# NET155V250UC; Perkin Elmer; www.perkinelmer.com) and 0.3 µM H2B (23–37). The reaction mixtures were incubated for 60 min at 23 °C. To stop the enzymatic reactions, 10 µL of 7.5 M guanidine hydrochloride was added, followed by 180 µL of buffer (20 mM Tris, pH 8.0), mixed and then transferred to a 96-well FlashPlate (Cat.# SMP103; Perkin Elmer; www.perkinelmer.com). After mixing, the reaction mixtures in Flash plates were incubated for 1 h and the CPM were measured using Topcount plate reader (Perkin Elmer, www.perkinelmer.com). The CPM counts in the absence of compound for each dataset were defined as 100% activity. In the absence of the enzyme, the CPM counts in each dataset were defined as background (0%). The IC50 values were determined using GraphPad Prism 7 software. For the kinetic analysis of HSPA8 methylation by PRMT7, the assay mixture contained 20 mM Tris–HCl, pH 8.5, 0.01% Tween-20, and 5 mM dithiothreitol (DTT), 1 mM MgCl2, 1 mM ATP where indicated, 250 nM PRMT7, fixed concentration (20 µM) of SAM, various concentrations (up to 40 µM) of HSPA8; or fixed concentration (10 µM) of HSPA8 with different concentrations of SAM (up to 20 µM). […] To determine the mode of action, the experiments were performed in the presence of fixed biotinylated H2B peptide (residues 23–37) or HSPA8 substrate concentration and increasing SAM concentration or at fixed concentration of SAM and varying concentration of the substrate. Twenty µL of reaction mixtures were incubated at 23 °C for 60 min. To stop reactions, 100 µL of 10% trichloroacetic acid (TCA) was added, mixed and transferred to filter-plates (Millipore; cat.# MSFBN6B10; www.millipore.com). Plates were centrifuged at 930 × g (Allegra X-15R—Beckman Coulter, Inc.) for 2 min followed by two additional 10% TCA washes and one ethanol wash followed by centrifugation. Plates were dried and 30 µL MicroScint-O (

PRMT6 = PRMT6 (Homo sapiens, UniProt Q96LA8)
Chain of PRMT6 (Q96LA8 whole entry): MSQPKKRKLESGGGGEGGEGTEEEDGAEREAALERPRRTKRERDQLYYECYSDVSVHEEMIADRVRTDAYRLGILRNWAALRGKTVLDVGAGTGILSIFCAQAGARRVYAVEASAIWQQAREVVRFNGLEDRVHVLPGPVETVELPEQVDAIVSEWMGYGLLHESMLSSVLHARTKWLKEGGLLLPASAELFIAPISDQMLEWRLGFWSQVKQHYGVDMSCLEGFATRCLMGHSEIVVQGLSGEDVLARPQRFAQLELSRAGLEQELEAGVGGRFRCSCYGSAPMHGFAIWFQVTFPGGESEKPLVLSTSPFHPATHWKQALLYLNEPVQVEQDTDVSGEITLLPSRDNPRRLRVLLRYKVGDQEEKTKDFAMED
Experimental: as §1

PRMT8 = PRMT8 (Homo sapiens, UniProt Q9NR22)
Chain of PRMT8 (Q9NR22 whole entry): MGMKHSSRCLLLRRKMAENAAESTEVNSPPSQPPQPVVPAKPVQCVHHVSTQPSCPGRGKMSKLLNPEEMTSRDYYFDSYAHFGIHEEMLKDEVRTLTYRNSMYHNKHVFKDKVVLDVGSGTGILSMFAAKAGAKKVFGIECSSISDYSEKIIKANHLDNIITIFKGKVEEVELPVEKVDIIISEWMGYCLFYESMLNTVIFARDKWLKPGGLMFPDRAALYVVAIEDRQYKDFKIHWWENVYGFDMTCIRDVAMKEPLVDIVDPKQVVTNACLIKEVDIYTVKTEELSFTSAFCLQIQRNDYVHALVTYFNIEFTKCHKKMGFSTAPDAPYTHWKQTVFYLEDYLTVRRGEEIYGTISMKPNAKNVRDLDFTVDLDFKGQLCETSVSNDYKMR
Experimental: as §1

PRMT9 = target: T1, PRMT9 (Homo sapiens, UniProt Q6P2P2)
T1 sequence (Q6P2P2 1-845): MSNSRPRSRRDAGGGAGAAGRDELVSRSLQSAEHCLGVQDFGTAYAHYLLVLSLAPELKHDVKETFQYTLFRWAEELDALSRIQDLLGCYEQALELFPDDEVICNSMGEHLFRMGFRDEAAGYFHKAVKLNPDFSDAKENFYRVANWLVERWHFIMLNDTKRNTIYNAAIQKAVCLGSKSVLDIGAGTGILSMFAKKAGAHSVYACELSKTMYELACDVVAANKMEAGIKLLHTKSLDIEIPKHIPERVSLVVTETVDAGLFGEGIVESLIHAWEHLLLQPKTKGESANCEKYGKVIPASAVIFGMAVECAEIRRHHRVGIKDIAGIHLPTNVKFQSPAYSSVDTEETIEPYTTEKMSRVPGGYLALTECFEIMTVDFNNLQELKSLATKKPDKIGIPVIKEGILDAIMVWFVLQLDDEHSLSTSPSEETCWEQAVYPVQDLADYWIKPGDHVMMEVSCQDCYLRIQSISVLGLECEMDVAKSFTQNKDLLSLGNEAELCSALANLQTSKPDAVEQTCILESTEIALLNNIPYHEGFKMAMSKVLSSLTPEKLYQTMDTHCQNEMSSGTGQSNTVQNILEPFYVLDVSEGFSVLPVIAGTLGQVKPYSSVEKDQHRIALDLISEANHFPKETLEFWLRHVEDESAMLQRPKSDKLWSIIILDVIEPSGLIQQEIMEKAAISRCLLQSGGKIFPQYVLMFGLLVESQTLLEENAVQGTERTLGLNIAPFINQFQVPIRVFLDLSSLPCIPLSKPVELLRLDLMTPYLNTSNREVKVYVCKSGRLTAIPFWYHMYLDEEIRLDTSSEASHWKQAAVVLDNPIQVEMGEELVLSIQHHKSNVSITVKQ
Experimental: as §1

DOT1L = DOT1L (Homo sapiens, UniProt Q8TEK3)
Chain of DOT1L (Q8TEK3 whole entry): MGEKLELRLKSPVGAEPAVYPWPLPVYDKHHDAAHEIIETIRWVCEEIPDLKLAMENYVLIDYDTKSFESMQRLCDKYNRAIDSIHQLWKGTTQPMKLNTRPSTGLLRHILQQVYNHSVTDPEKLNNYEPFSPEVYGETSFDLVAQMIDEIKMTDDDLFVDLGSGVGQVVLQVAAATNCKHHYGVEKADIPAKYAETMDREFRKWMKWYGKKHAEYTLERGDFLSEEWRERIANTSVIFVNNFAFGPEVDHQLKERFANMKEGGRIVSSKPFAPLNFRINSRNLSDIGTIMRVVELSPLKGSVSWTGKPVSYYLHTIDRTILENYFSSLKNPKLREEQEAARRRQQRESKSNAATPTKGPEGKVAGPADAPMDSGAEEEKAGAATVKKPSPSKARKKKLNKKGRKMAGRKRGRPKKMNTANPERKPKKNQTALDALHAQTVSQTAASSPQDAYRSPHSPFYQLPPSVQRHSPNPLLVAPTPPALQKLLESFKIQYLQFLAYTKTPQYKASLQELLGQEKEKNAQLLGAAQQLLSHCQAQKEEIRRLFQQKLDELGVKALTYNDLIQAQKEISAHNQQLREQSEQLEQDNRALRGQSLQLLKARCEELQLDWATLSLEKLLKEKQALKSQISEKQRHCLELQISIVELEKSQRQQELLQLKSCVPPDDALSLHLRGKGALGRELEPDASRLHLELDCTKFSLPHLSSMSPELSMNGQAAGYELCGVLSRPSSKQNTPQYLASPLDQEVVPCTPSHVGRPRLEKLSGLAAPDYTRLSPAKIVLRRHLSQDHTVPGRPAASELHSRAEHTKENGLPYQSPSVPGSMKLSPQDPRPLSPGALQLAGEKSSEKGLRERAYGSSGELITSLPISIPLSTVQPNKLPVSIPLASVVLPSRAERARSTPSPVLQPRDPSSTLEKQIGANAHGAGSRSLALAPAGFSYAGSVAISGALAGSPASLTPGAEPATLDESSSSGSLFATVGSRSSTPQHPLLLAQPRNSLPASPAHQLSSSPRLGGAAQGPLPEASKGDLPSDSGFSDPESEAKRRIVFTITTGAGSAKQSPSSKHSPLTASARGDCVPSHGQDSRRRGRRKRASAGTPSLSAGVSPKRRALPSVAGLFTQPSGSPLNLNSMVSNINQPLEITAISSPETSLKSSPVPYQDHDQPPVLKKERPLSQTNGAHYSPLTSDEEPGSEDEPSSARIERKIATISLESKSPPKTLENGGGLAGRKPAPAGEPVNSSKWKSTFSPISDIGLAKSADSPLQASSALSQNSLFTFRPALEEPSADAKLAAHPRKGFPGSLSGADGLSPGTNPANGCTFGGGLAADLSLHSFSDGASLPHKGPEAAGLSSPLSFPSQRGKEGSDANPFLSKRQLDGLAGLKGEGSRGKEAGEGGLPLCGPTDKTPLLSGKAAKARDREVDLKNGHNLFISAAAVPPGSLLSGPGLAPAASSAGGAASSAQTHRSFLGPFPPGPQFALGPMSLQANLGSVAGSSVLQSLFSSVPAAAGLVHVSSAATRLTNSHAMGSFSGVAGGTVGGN

PRMT1 = PRMT1 (Homo sapiens, UniProt Q99873)
Chain of PRMT1 (Q99873 whole entry): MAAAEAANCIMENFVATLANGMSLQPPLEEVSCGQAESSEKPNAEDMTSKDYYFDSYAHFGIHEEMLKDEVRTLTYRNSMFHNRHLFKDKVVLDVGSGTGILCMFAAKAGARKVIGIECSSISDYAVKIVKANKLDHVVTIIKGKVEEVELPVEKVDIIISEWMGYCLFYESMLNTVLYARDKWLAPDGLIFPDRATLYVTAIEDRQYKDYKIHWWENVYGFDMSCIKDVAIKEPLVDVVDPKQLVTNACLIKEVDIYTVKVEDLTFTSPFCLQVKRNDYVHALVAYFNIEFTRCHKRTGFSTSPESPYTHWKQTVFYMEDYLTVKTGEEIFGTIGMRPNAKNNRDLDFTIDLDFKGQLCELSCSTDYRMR

Chain of PRMT5-MEP50 (O14744 whole entry): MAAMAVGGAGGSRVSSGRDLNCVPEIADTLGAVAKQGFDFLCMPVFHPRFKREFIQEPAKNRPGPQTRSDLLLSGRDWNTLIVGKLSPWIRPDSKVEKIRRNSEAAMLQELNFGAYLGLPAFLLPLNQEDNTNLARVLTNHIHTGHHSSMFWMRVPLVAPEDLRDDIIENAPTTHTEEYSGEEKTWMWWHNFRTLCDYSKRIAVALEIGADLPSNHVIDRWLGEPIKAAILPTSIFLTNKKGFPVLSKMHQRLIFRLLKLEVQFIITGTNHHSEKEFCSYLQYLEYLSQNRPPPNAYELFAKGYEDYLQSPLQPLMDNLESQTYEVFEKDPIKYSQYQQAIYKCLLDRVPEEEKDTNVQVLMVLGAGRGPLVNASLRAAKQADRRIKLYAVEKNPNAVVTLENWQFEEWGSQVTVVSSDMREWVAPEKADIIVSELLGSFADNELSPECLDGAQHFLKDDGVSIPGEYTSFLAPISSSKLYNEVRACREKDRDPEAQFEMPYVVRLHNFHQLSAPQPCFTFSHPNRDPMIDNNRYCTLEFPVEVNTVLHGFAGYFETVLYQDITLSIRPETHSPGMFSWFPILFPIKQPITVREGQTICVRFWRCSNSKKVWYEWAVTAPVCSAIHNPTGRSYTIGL
Chain of PRMT5-MEP50 (Q9BQA1 whole entry partner): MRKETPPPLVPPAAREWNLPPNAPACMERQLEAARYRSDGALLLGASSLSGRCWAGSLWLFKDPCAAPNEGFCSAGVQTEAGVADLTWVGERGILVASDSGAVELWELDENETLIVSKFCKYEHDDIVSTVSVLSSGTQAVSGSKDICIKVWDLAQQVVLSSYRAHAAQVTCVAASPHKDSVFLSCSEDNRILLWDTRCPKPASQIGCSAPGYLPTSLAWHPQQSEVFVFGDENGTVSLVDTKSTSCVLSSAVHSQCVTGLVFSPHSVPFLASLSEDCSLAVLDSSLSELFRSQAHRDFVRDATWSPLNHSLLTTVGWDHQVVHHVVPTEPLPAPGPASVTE

Structure (SMILES)	pIC50 (PRMT5-MEP50)	pIC50 (PRMT6)	pIC50 (PRMT8)	pIC50 (PRMT9)	pIC50 (DOT1L)	pIC50 (PRMT1)
Nc1ncnc2c1ncn2[C@@H]1O[C@H](CSCCCNCc2cccc(-c3ccc(Cl)cc3)c2)[C@@H](O)[C@H]1O [SGC8172]	7.36	~5.92	~5.82	6.86		
Nc1ncnc2c1ncn2[C@@H]1O[C@H](CSCCCCNCc2cccc(-c3ccc(Cl)cc3)c2)[C@@H](O)[C@H]1O [SGC8158]					5.77	4.92
